# Measurements reported in ChEMBL document CHEMBL5715952 (Oncotarget, 2015).
# Tests used:
# [1] = Inhibition of MEK/MAPK in human RPMI-8226 cells assessed as reduction of cell growth incubated for 72 hrs by CellTiter 96 aqueous one solution cell proliferation assay; format: cell-based; details: RPMI-8226, 72 h
# [2] = Inhibition of MEK/MAPK in bortezomib Resistant human RPMI-8226 cells assessed as reduction of cell growth incubated for 72 hrs by CellTiter 96 aqueous one solution cell proliferation assay; format: cell-based; details: Bortezomib-resistant RPMI-8226, 72 h
# [3] = Inhibition of MEK/MAPK in melphalan-resistant human RPMI-8226 cells assessed as reduction of cell growth incubated for 72 hrs by CellTiter 96 aqueous one solution cell proliferation assay; format: cell-based; details: Melphalan-resistant RPMI-8226 cell
# [4] = Ratio of IC50 for inhibition of MEK/MAPK in human RPMI-8226 cells assessed as reduction of cell viability to IC50 for inhibition of MEK/MAPK in human melphalan-resistant RPMI-8226 cells assessed as reduction of cell viability; details: time 72 hrs; condition multiple myeloma
# [5] = Inhibition of MEK/MAPK in human ANBL-6 cells assessed as reduction of cell growth incubated for 72 hrs by CellTiter 96 aqueous one solution cell proliferation assay; format: cell-based; details: ANBL-6, 72 h
# [6] = Inhibition of MEK/MAPK in human bortezomib-resistant ANBL6 cells assessed as reduction of cell growth incubated for 72 hrs by CellTiter 96 aqueous one solution cell proliferation assay; format: cell-based
# [7] = Inhibition of MEK/MAPK in human U-266 cells assessed as reduction of cell growth incubated for 72 hrs by CellTiter 96 aqueous one solution cell proliferation assay; format: cell-based; details: U-266, 72 h
# [8] = Ratio of IC50 for inhibition of MEK/MAPK in human RPMI-8226 cells assessed as reduction of cell viability to IC50 for inhibition of MEK/MAPK in human RPMI-8226/BR resistant cells assessed as reduction of cell viability; details: condition multiple myeloma
# [9] = Ratio of IC50 for inhibition of MEK/MAPK in human ANBL6 cells assessed as reduction of cell viability to IC50 for inhibition of MEK/MAPK in human ANBL6/BR resistant cells assessed as reduction of cell viability; details: condition multiple myeloma
# [10] = Ratio of IC50 for inhibition of PI3K/mTOR in human RPMI-8226 cells assessed as reduction of cell viability to IC50 for inhibition of PI3K/mTOR in human melphalan-resistant RPMI-8226 cells assessed as reduction of cell viability; details: time 72 hrs; condition multiple myeloma
# [11] = Ratio of IC50 for inhibition of PI3K/mTOR in human RPMI-8226 cells assessed as reduction of cell viability to IC50 for inhibition of PI3K/mTOR in human RPMI-8226/BR resistant cells assessed as reduction of cell viability; details: condition multiple myeloma
# [12] = Ratio of IC50 for inhibition of PI3K/mTOR in human ANBL6 cells assessed as reduction of cell viability to IC50 for inhibition of PI3K/mTOR in human ANBL6/BR resistant cells assessed as reduction of cell viability; details: condition multiple myeloma
# [13] = cells; details: Homo sapiens, RPMI-8226, 72 h
# [14] = cells; details: Homo sapiens, Bortezomib-resistant RPMI-8226, 72 h
# [15] = cells; details: Homo sapiens, Melphalan-resistant RPMI-8226 cell, 72 h
# [16] = cells; details: Homo sapiens, ANBL-6, 72 h
# [17] = cells; details: Homo sapiens, Bortezomib-resistant ANBL6 cell, 72 h
# [18] = cells; details: Homo sapiens, U-266, 72 h
# [19] = Ratio of IC50 for inhibition of BCR-ABL/KIT/LCK/EPHA/DDR in human RPMI-8226 cells assessed as reduction of cell viability to IC50 for inhibition of BCR-ABL/KIT/LCK/EPHA/DDR in human melphalan-resistant RPMI-8226 cells assessed as reduction of cell viability; details: time 72 hrs; condition multiple myeloma
# [20] = Ratio of IC50 for inhibition of BCR-ABL/KIT/LCK/EPHA/DDR in human RPMI-8226 cells assessed as reduction of cell viability to IC50 for inhibition of BCR-ABL/KIT/LCK/EPHA/DDR in human RPMI-8226/BR resistant cells assessed as reduction of cell viability; details: condition multiple myeloma
# [21] = Ratio of IC50 for inhibition of BCR-ABL/KIT/LCK/EPHA/DDR in human ANBL6 cells assessed as reduction of cell viability to IC50 for inhibition of BCR-ABL/KIT/LCK/EPHA/DDR in human ANBL6/BR resistant cells assessed as reduction of cell viability; details: condition multiple myeloma
# [22] = cells; details: Homo sapiens, RPMI-8226, 72 h; remark: listed apart in the source
# [23] = cells; details: Homo sapiens, Bortezomib-resistant RPMI-8226, 72 h; remark: listed apart in the source
# [24] = cells; details: Homo sapiens, Melphalan-resistant RPMI-8226 cell, 72 h; remark: listed apart in the source
# [25] = cells; details: Homo sapiens, ANBL-6, 72 h; remark: listed apart in the source
# [26] = cells; details: Homo sapiens, Bortezomib-resistant ANBL6 cell, 72 h; remark: listed apart in the source
# [27] = cells; details: Homo sapiens, U-266, 72 h; remark: listed apart in the source
# [28] = Inhibition of MET/VEGFR/Tie2 in human RPMI-8226 cells assessed as reduction of cell growth incubated for 72 hrs by CellTiter 96 aqueous one solution cell proliferation assay; format: cell-based; details: RPMI-8226, 72 h
# [29] = Inhibition of MET/VEGFR/Tie2 in bortezomib Resistant human RPMI-8226 cells assessed as reduction of cell growth incubated for 72 hrs by CellTiter 96 aqueous one solution cell proliferation assay; format: cell-based; details: Bortezomib-resistant RPMI-8226, 72 h
# [30] = Inhibition of MET/VEGFR/Tie2 in Melphalan Resistant human RPMI-8226 cells assessed as reduction of cell growth incubated for 72 hrs by CellTiter 96 aqueous one solution cell proliferation assay; format: cell-based; details: Melphalan-resistant RPMI-8226 cell
# [31] = Inhibition of MET/VEGFR/Tie2 in human ANBL-6 cells assessed as reduction of cell growth incubated for 72 hrs by CellTiter 96 aqueous one solution cell proliferation assay; format: cell-based; details: ANBL-6, 72 h
# [32] = Inhibition of MET/VEGFR/Tie2 in human bortezomib-resistant ANBL6 cells assessed as reduction of cell growth incubated for 72 hrs by CellTiter 96 aqueous one solution cell proliferation assay; format: cell-based
# [33] = Inhibition of MET/VEGFR/Tie2 in human U-266 cells assessed as reduction of cell growth incubated for 72 hrs by CellTiter 96 aqueous one solution cell proliferation assay; format: cell-based; details: U-266, 72 h
# [34] = Ratio of IC50 for inhibition of MET/VEGFR/Tie2 in human RPMI-8226 cells assessed as reduction of cell viability to IC50 for inhibition of MET/VEGFR/Tie2 in human melphalan-resistant RPMI-8226 cells assessed as reduction of cell viability; details: time 72 hrs; condition multiple myeloma
# [35] = Ratio of IC50 for inhibition of MET/VEGFR/Tie2 in human RPMI-8226 cells assessed as reduction of cell viability to IC50 for inhibition of MET/VEGFR/Tie2 in human RPMI-8226/BR resistant cells assessed as reduction of cell viability; details: condition multiple myeloma
# [36] = Ratio of IC50 for inhibition of MET/VEGFR/Tie2 in human ANBL6 cells assessed as reduction of cell viability to IC50 for inhibition of MET/VEGFR/Tie2 in human ANBL6/BR resistant cells assessed as reduction of cell viability; details: condition multiple myeloma
smiles,measurement,setting,value
O=C(NOCC1CC1)c1ccc(F)c(F)c1Nc1ccc(I)cc1Cl [CI-1040],IC50,[1],2.04 µM
same,IC50,[2],7.59 µM
same,IC50,[3],4.9 µM
same,Ratio IC50,[4],0.6
same,IC50,[5],8.13 µM
same,IC50,[6],10 µM
same,IC50,[7],5.13 µM
same,Ratio IC50,[8],0.27
same,Ratio IC50,[9],0.81
Cn1c(=O)n(-c2ccc(C(C)(C)C#N)cc2)c2c3cc(-c4cnc5ccccc5c4)ccc3ncc21 [DACTOLISIB],Ratio IC50,[10],0.4
same,Ratio IC50,[11],0.45
same,Ratio IC50,[12],1.68
same,IC50,[13],0.0172 µM
same,IC50,[14],0.0382 µM
same,IC50,[15],0.0922 µM
same,IC50,[16],0.0823 µM
same,IC50,[17],0.0489 µM
same,IC50,[18],0.056 µM
Cc1cn(-c2cc(NC(=O)c3ccc(C)c(Nc4nccc(-c5cccnc5)n4)c3)cc(C(F)(F)F)c2)cn1 [NILOTINIB],Ratio IC50,[19],1
same,Ratio IC50,[20],1
same,Ratio IC50,[21],1
same,IC50,[22],9.83 µM
same,IC50,[23],10 µM
same,IC50,[24],10 µM
same,IC50,[25],10 µM
same,IC50,[26],10 µM
same,IC50,[27],10 µM
Cn1cnc(-c2cc3nccc(Oc4ccc(NC(=S)NC(=O)Cc5ccccc5)cc4F)c3s2)c1,IC50,[28],8.91 µM
same,IC50,[29],6.46 µM
same,IC50,[30],10 µM
same,IC50,[31],10 µM
same,IC50,[32],9.33 µM
same,IC50,[33],10 µM
same,Ratio IC50,[34],0.9
same,Ratio IC50,[35],1.55
same,Ratio IC50,[36],1.07
